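A five-concentration, 48-hour dose response in 96-well plates underlies each endpoint, interpolated linearly between surrounding concentrations. GI50 = concentration required for 50% inhibition of growth. The concentration for full growth arrest is given as TGI.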
How the values were obtained:
Assay in all cases: NCI tumour cell line growth inhibition, 48 h
KM12 colon = test system: KM12 colon
HCC-2998 colon = test system: HCC-2998 colon
A549 NSCLC = test system: A549 NSCLC
DU-145 prostate = test system: DU-145 prostate
PC-3 prostate = test system: PC-3 prostate
786-0 renal = test system: 786-0 renal
SR leukemia = test system: SR leukemia
RPMI-8226 leukemia = test system: RPMI-8226 leukemia
NCI-H226 lung = test system: NCI-H226 lung
RXF 393 renal = test system: RXF 393 renal
HS 578T breast = test system: HS 578T breast
SK-OV-3 ovarian = test system: SK-OV-3 ovarian
UO-31 renal = test system: UO-31 renal
NCI-H23 lung = test system: NCI-H23 lung
SNB-19 CNS = test system: SNB-19 CNS
TK-10 renal = test system: TK-10 renal
UACC-257 melanoma = test system: UACC-257 melanoma
MCF7 breast = test system: MCF7 breast
MDA-MB-435 = test system: MDA-MB-435
HOP-92 NSCLC = test system: HOP-92 NSCLC
K-562 leukemia = test system: K-562 leukemia
OVCAR-8 ovarian = test system: OVCAR-8 ovarian
COLO 205 colon = test system: COLO 205 colon
HCT-116 colon = test system: HCT-116 colon
CAKI-1 renal = test system: CAKI-1 renal
A498 renal = test system: A498 renal
HT29 colon = test system: HT29 colon
SK-MEL-5 melanoma = test system: SK-MEL-5 melanoma
HL-60(TB) leukemia = test system: HL-60(TB) leukemia
SN12C renal = test system: SN12C renal
NCI-H460 lung = test system: NCI-H460 lung
SW-620 colon = test system: SW-620 colon
HCT-15 colon = test system: HCT-15 colon
BT-549 breast = test system: BT-549 breast
MOLT-4 leukemia = test system: MOLT-4 leukemia
ACHN renal = test system: ACHN renal
NCI/ADR-RES ovarian = test system: NCI/ADR-RES ovarian
SK-MEL-2 melanoma = test system: SK-MEL-2 melanoma
SF-295 CNS = test system: SF-295 CNS
HOP-62 NSCLC = test system: HOP-62 NSCLC
U251 CNS = test system: U251 CNS
EKVX NSCLC = test system: EKVX NSCLC
LOX IMVI melanoma = test system: LOX IMVI melanoma
UACC-62 melanoma = test system: UACC-62 melanoma
MDA-MB-231 breast = test system: MDA-MB-231 breast
NCI-H522 lung = test system: NCI-H522 lung
SK-MEL-28 melanoma = test system: SK-MEL-28 melanoma
SF-539 CNS = test system: SF-539 CNS
OVCAR-4 ovarian = test system: OVCAR-4 ovarian
T-47D breast = test system: T-47D breast
OVCAR-5 ovarian = test system: OVCAR-5 ovarian
SNB-75 CNS = test system: SNB-75 CNS
SF-268 CNS = test system: SF-268 CNS
M14 melanoma = test system: M14 melanoma
IGROV1 ovarian = test system: IGROV1 ovarian

Cc1[nH]c2ccccc2c1CCNCc1ccc(/C=C/C(=O)NO)cc1
GI50 (KM12 colon): 19.3 nM
TGI (KM12 colon): 112 nM
GI50 (HCC-2998 colon): 12.1 nM
TGI (HCC-2998 colon): 35.3 nM
GI50 (A549 NSCLC): 15.8 nM
TGI (A549 NSCLC): 101 nM
GI50 (DU-145 prostate): < 10 nM
TGI (DU-145 prostate): 53.2 nM
GI50 (PC-3 prostate): < 11.4 nM
TGI (PC-3 prostate): 2860 nM
GI50 (786-0 renal): 27.5 nM
TGI (786-0 renal): 490 nM
GI50 (SR leukemia): < 10 nM
GI50 (RPMI-8226 leukemia): < 12.3 nM
TGI (RPMI-8226 leukemia): 595 nM
GI50 (NCI-H226 lung): 30.5 nM
TGI (NCI-H226 lung): 172 nM
GI50 (RXF 393 renal): < 10.4 nM
TGI (RXF 393 renal): 25 nM
GI50 (HS 578T breast): < 10 nM
TGI (HS 578T breast): 55.4 nM
GI50 (SK-OV-3 ovarian): 13.4 nM
TGI (SK-OV-3 ovarian): 41.2 nM
GI50 (UO-31 renal): 12.9 nM
TGI (UO-31 renal): 63.7 nM
GI50 (NCI-H23 lung): 24.6 nM
TGI (NCI-H23 lung): 150 nM
GI50 (SNB-19 CNS): 24.4 nM
TGI (SNB-19 CNS): 323 nM
GI50 (TK-10 renal): < 11.1 nM
TGI (TK-10 renal): 45.3 nM
GI50 (UACC-257 melanoma): < 10 nM
TGI (UACC-257 melanoma): 44.7 nM
GI50 (MCF7 breast): < 10 nM
TGI (MCF7 breast): 795 nM
GI50 (MDA-MB-435): < 10 nM
TGI (MDA-MB-435): 50.2 nM
GI50 (HOP-92 NSCLC): < 10 nM
TGI (HOP-92 NSCLC): < 10 nM
GI50 (K-562 leukemia): < 10 nM
TGI (K-562 leukemia): 83.3 nM
GI50 (OVCAR-8 ovarian): < 10 nM
TGI (OVCAR-8 ovarian): 178 nM
GI50 (COLO 205 colon): < 10.8 nM
TGI (COLO 205 colon): 21.8 nM
GI50 (HCT-116 colon): < 10 nM
TGI (HCT-116 colon): 14.2 nM
GI50 (CAKI-1 renal): 19.3 nM
TGI (CAKI-1 renal): 52.4 nM
GI50 (A498 renal): < 10 nM
TGI (A498 renal): 22 nM
GI50 (HT29 colon): < 10 nM
TGI (HT29 colon): 10600 nM
GI50 (SK-MEL-5 melanoma): < 11.3 nM
TGI (SK-MEL-5 melanoma): 27.5 nM
GI50 (HL-60(TB) leukemia): < 10 nM
TGI (HL-60(TB) leukemia): 3160 nM
GI50 (SN12C renal): 27.2 nM
TGI (SN12C renal): 317 nM
GI50 (NCI-H460 lung): < 10 nM
TGI (NCI-H460 lung): 838 nM
GI50 (SW-620 colon): < 10 nM
TGI (SW-620 colon): 21.9 nM
GI50 (HCT-15 colon): 67.6 nM
TGI (HCT-15 colon): 12900 nM
GI50 (BT-549 breast): 213 nM
TGI (BT-549 breast): 12300 nM
GI50 (MOLT-4 leukemia): < 10 nM
GI50 (ACHN renal): 18.3 nM
TGI (ACHN renal): 71.4 nM
GI50 (NCI/ADR-RES ovarian): 21.1 nM
TGI (NCI/ADR-RES ovarian): 267 nM
GI50 (SK-MEL-2 melanoma): < 12 nM
TGI (SK-MEL-2 melanoma): 53.2 nM
GI50 (SF-295 CNS): 14.6 nM
TGI (SF-295 CNS): 56.3 nM
GI50 (HOP-62 NSCLC): < 12.2 nM
TGI (HOP-62 NSCLC): 69.7 nM
GI50 (U251 CNS): < 10.8 nM
TGI (U251 CNS): 33.3 nM
GI50 (EKVX NSCLC): 23 nM
TGI (EKVX NSCLC): 1500 nM
GI50 (LOX IMVI melanoma): 12.8 nM
TGI (LOX IMVI melanoma): 30 nM
GI50 (UACC-62 melanoma): < 10 nM
TGI (UACC-62 melanoma): 22.9 nM
GI50 (MDA-MB-231 breast): 28.4 nM
TGI (MDA-MB-231 breast): 162 nM
GI50 (NCI-H522 lung): < 10 nM
TGI (NCI-H522 lung): 32.4 nM
GI50 (SK-MEL-28 melanoma): < 11.5 nM
TGI (SK-MEL-28 melanoma): 72.8 nM
GI50 (SF-539 CNS): 24.9 nM
TGI (SF-539 CNS): 2110 nM
GI50 (OVCAR-4 ovarian): 15 nM
TGI (OVCAR-4 ovarian): 58.5 nM
GI50 (T-47D breast): < 10 nM
TGI (T-47D breast): 34.4 nM
GI50 (OVCAR-5 ovarian): < 10 nM
TGI (OVCAR-5 ovarian): 91.1 nM
GI50 (SNB-75 CNS): < 14.7 nM
TGI (SNB-75 CNS): 2800 nM
GI50 (SF-268 CNS): 15.7 nM
TGI (SF-268 CNS): 60.5 nM
GI50 (M14 melanoma): < 11.6 nM
TGI (M14 melanoma): 111 nM
GI50 (IGROV1 ovarian): 16.8 nM
TGI (IGROV1 ovarian): 72.1 nM

Reference: PubChem BioAssay (NCI)
